# Measurements as given in patent publication US20110178118A1, “PALONOSETRON FOR THE TREATMENT OF CHEMOTHERAPY INDUCED EMESES” (priority 2002, published 2011).
# Like-named read-outs stand apart in the source and are kept apart here. Marks after values point to notes of the source that are not given here.
# Key:
# [1] = tested on: Actinomycin D-Induced Emesis; test: Antagonism of actinomycin D-induced emesis; assay type: in vivo, dogs; conditions: for Emetic Episodes (mean ± SD): 2 hours prior to actinomycin D 0.15 mg/kg IV, observed 5 hours
# cisplatin-induced emesis [2] = test: Intravenous palonosetron vs ondansetron in cisplatin-treated dogs; assay type: in vivo; conditions: 0.1 mg/kg intravenous; five-hour period following cisplatin 3.0 mg/kg
# Description: The antiemetic effects of intravenously and orally administered palonosetron were assessed in male and female dogs (sexes combined). Antineoplastic agents employed in these experiments included cisplatin (3 mg/kg)), dacarbazine (30 mg/kg), mechlorethamine (0.4 mg/kg) and actinomycin D (0.15 mg/kg). […] Mean numbers of episodes were computed and the statistical significance of differences between treatment groups were determined with Dunnett's t test. Solutions of palonosetron and comparator drugs (ondansetron and granisetron) were prepared in distilled water. Vehicle control groups received distilled water. The therapeutic effects of intravenously and orally administered palonosetron were compared to those of ondansetron and vehicle in cisplatin-treated dogs.
# cisplatin-induced emesis [3] = test: Systemic exposure study: effects on cisplatin-induced emesis; assay type: in vivo, dogs; conditions: 30 minutes prior to cisplatin, oral, table title says intravenous
# Description: An experiment was conducted to study the relationship between plasma concentration of palonosetron and protection of dogs against cisplatin-induced emesis. Groups of dogs received oral doses of palonosetron (0, 100, 316, or 1000 μg/kg) or vehicle control 30 minutes prior to the injection of cisplatin.
# cisplatin-induced emesis [4] = test: Anti-emetic effect, oral antiemetic one hour before cisplatin; assay type: in vivo, dogs; conditions: for Emetic Episodes (mean ± SD): observed five hours
# Description: The antiemetic effects of intravenously and orally administered palonosetron were assessed in male and female dogs (sexes combined). Antineoplastic agents employed in these experiments included cisplatin (3 mg/kg)), dacarbazine (30 mg/kg), mechlorethamine (0.4 mg/kg) and actinomycin D (0.15 mg/kg). […] Mean numbers of episodes were computed and the statistical significance of differences between treatment groups were determined with Dunnett's t test. Solutions of palonosetron and comparator drugs (ondansetron and granisetron) were prepared in distilled water. Vehicle control groups received distilled water. The observation of potency differential was further seen during an experiment in which oral dose-response relationships of palonosetron and ondansetron were compared in cisplatin-treated dogs. Palonosetron, ondansetron or vehicle control were administered by the oral route one hour prior to the administration of cisplatin. Each animal was observed continuously for five hours following cisplatin administration for the number of emetic episodes.
# [5] = tested on: Dacarbazine-Induced Emesis; test: Antagonism of dacarbazine-induced emesis; assay type: in vivo, dogs; conditions: for Emetic Episodes (mean ± SD): 2 hours prior to dacarbazine 30.0 mg/kg IV, observed 5 hours
# [6] = Systemic exposure of palonosetron (plasma, HPLC-radioimmunoassay); assay type: in vivo, dogs; conditions: 100 to 1000 μg/kg
# cisplatin-induced emesis [7] = test: Reversal of cisplatin-induced emesis, intravenous antiemetic one hour after cisplatin; assay type: in vivo, dogs; conditions: for Emetic Episodes (mean ± SD): observed five hours
# Description: The antiemetic effects of intravenously and orally administered palonosetron were assessed in male and female dogs (sexes combined). Antineoplastic agents employed in these experiments included cisplatin (3 mg/kg)), dacarbazine (30 mg/kg), mechlorethamine (0.4 mg/kg) and actinomycin D (0.15 mg/kg). […] Mean numbers of episodes were computed and the statistical significance of differences between treatment groups were determined with Dunnett's t test. Solutions of palonosetron and comparator drugs (ondansetron and granisetron) were prepared in distilled water. Vehicle control groups received distilled water. In a different study, palonosetron and ondansetron were assessed for their relative abilities to reverse cisplatin-induced emesis. In these experiments dogs received intravenous injections of palonosetron, ondansetron, or vehicle one hour after the intravenous administration of 3.0 mg/kg cisplatin. Each animal was observed continuously for five hours following cisplatin administration for the number of emetic episodes.
# [8] = tested on: Highly Emetogenic Chemotherapy-Induced Nausea and Vomiting; test: Phase II dose-ranging trial, single I.V. palonosetron, efficacy; conditions: for % CR(Day 5): 5-day complete response; for % CR(24 hr): complete response (no emesis, no rescue)
# Description: A randomized, double-blind, multicenter, dose-ranging Phase II trial was performed to identify the dose response relationship among single I.V. doses of palonosetron. Patients receiving highly emetogenic chemotherapy including cyclophosphamide (>1100 mg/m2) and cisplatin (>70 mg/m2), commonly associated with delayed emesis, were assigned to one of five dose groups of a single I.V. administration of palonosetron. Palonosetron was administered alone (without dexamethasone) as a 30 second intravenous injection, 30 minutes prior to chemotherapy administration. The primary endpoint was 24-hour complete responses (no emesis, no rescue) (CR). Secondary endpoints included complete control (no emesis, no rescue, mild nausea) (CC) and 5-day CR.
# 161 patients (32 women, 129 men) participated.
# cisplatin-induced emesis [9] = test: Duration of action in cisplatin-treated dogs; assay type: in vivo
# Description: Mean numbers of episodes were computed and the statistical significance of differences between treatment groups were determined with Dunnett's t test. Solutions of palonosetron and comparator drugs (ondansetron and granisetron) were prepared in distilled water. Vehicle control groups received distilled water.
# [10] = Plasma half-life of palonosetron; assay type: in vivo; conditions: human
# [11] = tested on: Mechlorethamine-Induced Emesis; assay type: in vivo, dogs; conditions: for Emetic Episodes (mean ± SD): 2 hours prior to mechlorethamine 0.4 mg/kg IV, observed 5 hours
# [12] = intravenous antiemetic 0.001 mg/kg
# [13] = intravenous antiemetic 0.003 mg/kg
# [14] = intravenous antiemetic 0.01 mg/kg
# [15] = intravenous antiemetic 0.03 mg/kg
# [16] = intravenous or oral route, stated for all three antineoplastic agents
# [17] = palonosetron 0.3-1 mcg/kg single I.V.
# [18] = palonosetron 3 mcg/kg single I.V.
# [19] = palonosetron 10 mcg/kg single I.V.
# [20] = palonosetron 30 mcg/kg single I.V.
# [21] = palonosetron 90 mcg/kg single I.V.
smiles,measurement,setting,value
"Cl.O=C1c2cccc3c2[C@H](CCC3)CN1[C@@H]1CN2CCC1CC2 [Palonosetron, (3aS)-2,3,3a,4,5,6-Hexahydro-2-[(S)-1-Azabicyclo[2.2.2]oct-3-yl]2,3,3a,4,5,6-hexahydro-1-oxo-1Hbenz[de]isoquinoline hydrochloride]",Emetic Episodes (mean ± SD),[1]; [12],10.00 ± 0.54^c
same,Emetic Episodes (mean ± SD),[1]; [13],10.83 ± 2.04 ^
same,Emetic Episodes (mean ± SD),[1]; [14],7.17 ± 3.06^d
same,Emetic Episodes (mean ± SD),[1]; [15],5.17 ± 4.45^d
same,potency relative to ondansetron,[1]; [16],at least 10 times
same,Emetic Episodes (mean ± SD),[1]; oral antiemetic 0.003 mg/kg,5.83 ± 1.47^d
same,Emetic Episodes (mean ± SD),[1]; oral antiemetic 0.01 mg/kg,6.67 ± 3.83^d
same,Emetic Episodes (mean ± SD),[1]; oral antiemetic 0.03 mg/kg,3.33 ± 4.55^d
same,Emetic Episodes (mean ± SD),[1]; oral antiemetic 0.1 mg/kg,1.00 ± 1.67^d
same,mean number of emetic episodes,cisplatin-induced emesis [2],2.20
same,Emetic Episodes (mean ± SD),cisplatin-induced emesis [3]; palonosetron 100 μg/kg,1.83 ± 1.60^b
same,Emetic Episodes (mean ± SD),cisplatin-induced emesis [3]; palonosetron 316 μg/kg,4.50 ± 6.83^b
same,Emetic Episodes (mean ± SD),cisplatin-induced emesis [3]; palonosetron 1000 μg/kg,5.67 ± 5.32^b
same,Emetic Episodes (mean ± SD),cisplatin-induced emesis [4]; oral dose 0.3 μg/kg one hour before cisplatin,12.16 ± 1.94
same,Emetic Episodes (mean ± SD),cisplatin-induced emesis [4]; oral dose 1.0 μg/kg one hour before cisplatin,12.83 ± 4.70
same,Emetic Episodes (mean ± SD),cisplatin-induced emesis [4]; oral dose 3.0 μg/kg one hour before cisplatin,16.16 ± 5.11
same,Emetic Episodes (mean ± SD),cisplatin-induced emesis [4]; oral dose 10.0 μg/kg one hour before cisplatin,4.00 ± 3.79^a
same,Emetic Episodes (mean ± SD),cisplatin-induced emesis [4]; oral dose 30.0 μg/kg one hour before cisplatin,2.66 ± 1.75^a
same,Emetic Episodes (mean ± SD),cisplatin-induced emesis [4]; oral dose 100.0 μg/kg one hour before cisplatin,0.00 ± 0.00^a
same,Emetic Episodes (mean ± SD),cisplatin-induced emesis [4]; oral dose 300.0 μg/kg one hour before cisplatin,1.67 ± 2.04^a
same,minimally effective dose (significant reduction in episodes),"cisplatin-induced emesis [4]; oral, one hour before cisplatin",10 µg/kg
same,Emetic Episodes (mean ± SD),[5]; [12],10.17 ± 2.04 ^
same,Emetic Episodes (mean ± SD),[5]; [13],6.67 ± 4.13^
same,Emetic Episodes (mean ± SD),[5]; [14],1.67 ± 1.37^d
same,Emetic Episodes (mean ± SD),[5]; [15],0.83 ± 1.17^d
same,potency relative to ondansetron,[5]; [16],at least 10 times
same,Emetic Episodes (mean ± SD),[5]; oral antiemetic 0.003 mg/kg,12.83 ± 6.68 ^
same,Emetic Episodes (mean ± SD),[5]; oral antiemetic 0.01 mg/kg,6.83 ± 4.92^d
same,Emetic Episodes (mean ± SD),[5]; oral antiemetic 0.03 mg/kg,0.33 ± 0.52^d
same,Emetic Episodes (mean ± SD),[5]; oral antiemetic 0.1 mg/kg,0.00 ± 0.00^d
same,dose proportionality of systemic exposure (AUC0-4hr),[6],approximately dose-proportional
same,Emetic Episodes (mean ± SD),cisplatin-induced emesis [7]; intravenous dose 0.3 μg/kg one hour after cisplatin 3.0 mg/kg IV,13.16 ± 6.11 ^
same,Emetic Episodes (mean ± SD),cisplatin-induced emesis [7]; intravenous dose 1.0 μg/kg one hour after cisplatin 3.0 mg/kg IV,7.16 ± 4.26^a
same,Emetic Episodes (mean ± SD),cisplatin-induced emesis [7]; intravenous dose 3.0 μg/kg one hour after cisplatin 3.0 mg/kg IV,4.33 ± 4.03^b
same,Emetic Episodes (mean ± SD),cisplatin-induced emesis [7]; intravenous dose 10.0 μg/kg one hour after cisplatin 3.0 mg/kg IV,4.50 ± 5.24^b
same,Emetic Episodes (mean ± SD),cisplatin-induced emesis [7]; intravenous dose 30.0 μg/kg one hour after cisplatin 3.0 mg/kg IV,1.33 ± 1.21^b
same,Emetic Episodes (mean ± SD),cisplatin-induced emesis [7]; intravenous dose 100.0 μg/kg one hour after cisplatin 3.0 mg/kg IV,1.67 ± 1.83^b
same,Emetic Episodes (mean ± SD),cisplatin-induced emesis [7]; intravenous dose 300.0 μg/kg one hour after cisplatin 3.0 mg/kg IV,3.33 ± 3.01^b
same,statistically minimally effective dose level,"cisplatin-induced emesis [7]; intravenous, one hour after cisplatin",1.0 µg/kg
same,% CR(Day 5),[8]; [17],17%
same,% CR(24 hr),[8]; [17],24%
same,% CR(Day 5),[8]; [18],17%
same,% CR(24 hr),[8]; [18],46%
same,% CR(Day 5),[8]; [19],32%
same,% CR(24 hr),[8]; [19],40%
same,% CR(Day 5),[8]; [20],33%
same,% CR(24 hr),[8]; [20],50* %
same,% CR(Day 5),[8]; [21],20%
same,% CR(24 hr),[8]; [21],46%
same,longest pretreatment time before cisplatin with antiemetic activity,cisplatin-induced emesis [9]; 0.1 mg/kg IV,10 h
same,Emetic Episodes (mean ± SD),"cisplatin-induced emesis [9]; 0.1 mg/kg IV, 1 hr pre-cisplatin 3.0 mg/kg IV",1.33 ± 1.03^b
same,Emetic Episodes (mean ± SD),"cisplatin-induced emesis [9]; 0.1 mg/kg IV, 2 hr pre-cisplatin 3.0 mg/kg IV",2.50 ± 2.43^b
same,Emetic Episodes (mean ± SD),"cisplatin-induced emesis [9]; 0.1 mg/kg IV, 4 hr pre-cisplatin 3.0 mg/kg IV",0.33 ± 0.52^b
same,Emetic Episodes (mean ± SD),"cisplatin-induced emesis [9]; 0.1 mg/kg IV, 6 hr pre-cisplatin 3.0 mg/kg IV",5.83 ± 4.40^b
same,Emetic Episodes (mean ± SD),"cisplatin-induced emesis [9]; 0.1 mg/kg IV, 8 hr pre-cisplatin 3.0 mg/kg IV",9.50 ± 5.50^b
same,Emetic Episodes (mean ± SD),"cisplatin-induced emesis [9]; 0.1 mg/kg IV, 10 hr pre-cisplatin 3.0 mg/kg IV",9.83 ± 4.79^b
same,Emetic Episodes (mean ± SD),"cisplatin-induced emesis [9]; 0.1 mg/kg IV, 12 hr pre-cisplatin 3.0 mg/kg IV",13.17 ± 6.27
same,"protective effects, pretreatment time prior to cisplatin","cisplatin-induced emesis [9]; earlier experiment, 0.03 mg/kg, compared with ondansetron 0.3 mg/kg IV (as long as seven hours)",similarly effective
same,half-life,[10],~40 h
same,Emetic Episodes (mean ± SD),[11]; [12],7.67 ± 5.05
same,Emetic Episodes (mean ± SD),[11]; [13],6.00 ± 4.29
same,Emetic Episodes (mean ± SD),[11]; [14],3.00 ± 3.52^d
same,Emetic Episodes (mean ± SD),[11]; [15],0.17 ± 0.41^d
same,potency relative to ondansetron,[11]; [16],at least 10 times
same,Emetic Episodes (mean ± SD),[11]; oral antiemetic 0.003 mg/kg,4.50 ± 3.51^c
same,Emetic Episodes (mean ± SD),[11]; oral antiemetic 0.01 mg/kg,2.83 ± 1.94^d
same,Emetic Episodes (mean ± SD),[11]; oral antiemetic 0.03 mg/kg,0.33 ± 0.82^d
same,Emetic Episodes (mean ± SD),[11]; oral antiemetic 0.1 mg/kg,0.00 ± 0.00^d
